In patent US12428377B2, “Sodium-hydrogen exchanger 3 inhibitor compounds” (Eli Lilly and Company, priority 2019, dated 2025):
Values joined by “and” are separate entries in the source; they are usually repeats but may differ in a detail not shown here. Identical values can stand only once.

Legend:
Format in all cases: in vivo, rat
male Sprague Dawley rats [1] = assay: Radiolabeled phosphate absorption in rats, Studies 1-3 (plasma radioactivity); conditions: for Absorption (vs. vehicle control): mean ± SEM
Method: Effect of Example 2 in Combination with an NPT2b Inhibitor (Compound A) on Phosphate Absorption in Rats
NPT2b inhibitor dosing solutions: Compound A and poly-1-vinylpyrrolidone-co-vinyl acetate (PVP-VA, Sigma-Aldrich) are weighed into a bottle at a ratio of 30% Compound A and 70% PVP-VA by weight. A clear yellow solution is prepared by diluting the mixture in MeOH followed by the addition of 2 mol NaOH per mol Compound A using 5 N NaOH. The solution is spray dried by a stream of hot nitrogen and the solid dispersion powder is collected and then further dried in a vacuum oven. Doses for the sprayed dried solid dispersion (SDD) are expressed as active pharmaceutical ingredient (API) throughout.
To make the Compound A dosing solution, an appropriate amount of Compound A SDD is weighed in a vial and dissolved in water (10 mL/kg dosing volume). […] The subsequent solutions for lower doses are prepared by serial dilutions with water. PVP-VA at 7 mg/mL is used as a vehicle control.
NHE3 inhibitor dosing solutions: To make the Example 2 dosing solution, an appropriate amount of the compound is weighed in a vial and dissolved in 1% HEC (10 mL/kg dosing volume). […] The subsequent solutions for lower doses are prepared by serial dilutions with HEC.
To make the radiolabeled phosphate dosing solution, a 16.25 mM Na2HPO4, 0.9% saline, pH 7.4 solution is prepared and filtered using a sterile, 0.22 μm, polyethersulfone, Millex-GP Syringe Filter Unit (EMD Millipore). Radioactive phosphate (H3^33PO4, Perkin Elmer) is added at about 2.5 μCi per mL of the solution and filtered again.
Three separate studies are performed. In these studies, male Sprague Dawley rats, are randomized into groups with approximately equal mean body weights. Following an overnight fast, all the animals are dosed at 10 mL/kg with either vehicle, varying doses of Compound A (Study 1), varying doses of Example 2 (Study 2) or 1.2 mg/kg Compound A and varying doses of Example 2 (Study 3). 15 min later, radiolabeled phosphate is orally dosed in a 2 mL volume. 15 min later, blood is collected and plasma is prepared. Radioactivity (dpm) in 50 μL plasma is measured by scintillation counting and is used to calculate phosphate absorption. The results are normalized with the vehicle controls representing 100% absorption. The curves are fitted with nonlinear regression with variable slope using GraphPad Prism 6 to calculate the ED50 and Emax given in Table 7. […] No curve fit was performed for Compound A alone in Study 1.

male Sprague Dawley rats [2] = assay: Intestinal phosphate retention: percent radiolabeled dose recovered in gastrointestinal tract; conditions: Compound A 10 mg/kg, 4 h after radiolabeled phosphate
Method: (§1) The purpose of this study is to investigate in rats the effect of Example 2, Compound A, and an Example 2/Compound A combination on phosphate absorption 15 min after dosing the compounds and the phosphate retained in the intestine 4.25 h after dosing the compounds. The latter is a measure of the oral phosphate load which is absorbed over an extended period.
(§2) Two vehicles are used in this study: 1) 1% HEC and 2) 0.46% poly-1-vinylpyrrolidone-co-vinyl acetate in water (PVP-VA vehicle). The vehicle control group in this study receives a 1:1 combination of the two vehicles.
The Example 2, Compound A and phosphate dosing solutions are prepared similarly as described above, except the doses are 0.4 mg/kg for Example 2 and 10 mg/kg for Compound A and they are prepared at a concentration where they would be dosed in a 5 mL/kg volume. The Example 2 and Compound A alone groups are mixed 1:1 with the vehicle of the other compound, while the Compound A and Example 2 are mixed 1:1 prior to dosing. The final dosing volume is 10 mL/kg in all cases.
4 h after the radiolabeled phosphate solution is dosed, stomach, small intestine, large intestine, and feces are collected, weighed and digested with 1N NaOH overnight at 37° C. Radioactivity in each fraction is measured by scintillation counting.
The percent dose recovered in gastrointestinal tract is defined as radioactivity recovered in stomach, small intestine, large intestine and feces compared to the amount dosed. Data is presented as mean±SEM with animal numbers equal to 8 for the groups. Statistical significance is determined by ANOVA with a Dunnett's comparison to the Example 2/Compound A combination using JMP 12.1.
The percent dose recovered in gastrointestinal tract data is further analyzed by a two-way ANOVA in JMP 12.1 to test for additivity of the effects of Example 2 and Compound A on inhibiting phosphate absorption. […] That is, the inhibitory effect of the combination is greater than the sum of the individual compound effects.

male Sprague Dawley rats [3] = assay: Phosphate absorption 15 min after radiolabeled phosphate (Example 2, Compound A, combination); conditions: Compound A 10 mg/kg, plasma 15 min after radiolabeled phosphate, P=0.013 versus vehicle control
Method: Effect of Example 2 in Combination with an NPT2b Inhibitor (Compound A) on Phosphate Absorption and Intestinal Phosphate Retention in Rats
as §1, §2
The Example 2, Compound A and phosphate dosing solutions are prepared similarly as described above, except the doses are 0.4 mg/kg for Example 2 and 10 mg/kg for Compound A and they are prepared at a concentration where they would be dosed in a 5 mL/kg volume. […]
Male Sprague Dawley rats are fasted 4 h and then administered appropriate vehicles, 10 mg/kg Compound A, 0.4 mg/kg Example 2, or a combination of both compounds. […] Radioactivity in plasma is measured by scintillation counting and used to calculate the inhibition of phosphate absorption. […] Statistical significance is determined by ANOVA with a Dunnett's comparison to the Example 2/Compound A combination using JMP 12.1.

## CC1(C)CN(C(=O)NCCCCO)CCN1Cc1cccc(C(=O)Nc2sc3c(c2C(=O)Nc2cc(F)c(CCc4ccc(C(=O)O)cc4)c(F)c2)CCCC3)c1 [Compound A, reference compound]
Male Sprague Dawley rats [1]; Study 1, rats, Compound A 0.01 mg/kg
  Absorption (vs. vehicle control): 94.39 ± 7.88%
Male Sprague Dawley rats [1]; Study 1, rats, Compound A 0.1 mg/kg
  Absorption (vs. vehicle control): 87.61 ± 6.08%
Male Sprague Dawley rats [1]; Study 1, rats, Compound A 1 mg/kg
  Absorption (vs. vehicle control): 87.64 ± 7.26%
Male Sprague Dawley rats [1]; Study 1, rats, Compound A 10 mg/kg
  Absorption (vs. vehicle control): 81.53 ± 5.50%
Male Sprague Dawley rats [1]; Study 1, rats, Compound A highest dose tested (10 mg/kg)
  % Inhibition at the highest dose (phosphate absorption): 18%
Male Sprague Dawley rats [1]; Study 3, rats, Vehicle + Compound A 1.2 mg/kg
  Absorption (vs. vehicle control): 71.00 ± 11.63%
Male Sprague Dawley rats [2]
  Percent Dose Recovered, Feces: <0.1%
Male Sprague Dawley rats [2]; mean ± SEM
  Percent Dose Recovered, Large Intestine: 18.43 ± 2.03%
  Percent Dose Recovered, Small Intestine: 8.98 ± 0.48%
  Percent Dose Recovered, Stomach: 4.86 ± 1.13%
Male Sprague Dawley rats [2]; mean ± SEM, 10 mg/kg
  Percent Dose Recovered, Total: 32% and 32.27 ± 1.38%
Male Sprague Dawley rats [3]
  Inhibition of phosphate absorption: 35%
